Entries after “also recorded” stand apart in the source; their conditions may differ.
Legend:
[1] = target: rabbit NHE3 (Oryctolagus cuniculus, UniProt P26432); test: NHE3 inhibition, internal pH (BCECF-AM) in transfected PS120 fibroblasts
Procedure: Internal pH was measured either following acid loading or in the absence of an acid-loading challenge, with the results shown in FIGS. 1A and 1B.
Specifically, PS120 fibroblasts transfected with rabbit NHE3 were grown in supplemented Dulbecco's-modified Eagle's medium as described by Levine et al., J. Biol. Chem. 268, 1993, 25527-25535. […] For cells not acid-preloaded, the actual internal pH value was monitored as a function of time following addition of squalamine, with the results depicted in FIG. 1B.
PS120 fibroblasts transfected with rabbit NHE3 were grown and acid preloaded by exposure to 40 mM NH4 Cl as described above in conjunction with FIGS. 1A and 1B. Internal cellular pH changes expressed as the rate of pH recovery as a function of restored extracellular sodium ion concentration following exposure to 10 μg/ml of the compound were assayed with the fluorescent dye BCECF-AM as described above.

[2] = tested on: Xenopus tadpoles, stage 59-60; test: Xenopus tadpole assay
[3] = Mouse IV PK study; settings: in vivo
Procedure: To assess clearance, a mouse IV PK study was performed for compound 319 and squalamine. The compound was administered i.v. and blood samples were taken every 10 minutes. The concentration of the administered steroid was determined by HPLC analysis.

[4] = tested on: B16 melanoma; test: Suppression of B16 melanoma growth in C57B mice; type: in vivo, mouse
Procedure: The growth of B16 melanoma in C57B mice is dependent upon neovascularization.
Using the growth of B16 melanoma cells in C57B mice, a recognized model for the evaluation of inhibitors of angiogenesis on the growth of cancers, the effects of subcutaneous, intraperitoneal and oral administration of squalamine were evaluated.
Animals were implanted with B16 melanoma followed by treatment with compound 1436 or 1256 administered in a combined schedule or separately. […] Thus, a combination of these two compounds achieves a theraputic benefit in tumors dependent on neovascularization that may prevent metastatic spread.

[5] = tested on: chick embryo vitelline capillaries; test: Chick embryo vitelline capillary regression assay; type: in vivo; design: key to Vitelline capillary regression: +: Vascular reactivity; 0: No vascular reactivity; +/-: Equivocal reactivity; settings: for Effect on chick embryo vessels: 3- to 5-day chick embryo
Procedure: Using the chick embryo vitelline capillaries assay, compounds were tested for their ability to induce capillary regression. Each compound was applied in 0.1 ml of 15% Ficol 400 and PBS onto the embryo, and vascular regression was assessed after 60 minutes.
The 3-day chick embryo consists of an embryonic disc from which numerous vessels emerge and return, forming a "FIG. 8"-shaped structure--the embryo in the center with vascular loops extending outward over both poles. […] Following a lag period of around 15 minutes, the constriction of continuity between capillary and secondary vessels, generally on the "venous" side, was observed. Continued pulsatile blood flow progressed, resulting in a "swelling" of the blind tube, followed by a pinching off of the remaining connection and formation of an enclosed vascular sac resembling a "blood island." This process progressed until only the largest vessels remained intact.

[6] = tested on: human melanoma; test: Time course of effect on melanoma growth; apoptosis; type: cell-based
[7] = tested on: ELC; test: ELC MTT; type: cell-based; settings: Table II; read-out: ELC MTT, Minimum Effective Concentration
[8] = tested on: HM; test: HM MTT assay; type: cell-based; settings: Table II; read-out: HM MTT assay, Minimum Effective Concentration
[9] = Fasting blood glucose in mice; type: in vivo, male CD-1 mice; settings: total dose 20 mg/kg i.v. (2 × 10 mg/kg), 30 min. after 2d dose
Procedure: To study the effect of steroid administrator or the NHE responsible for secretion of insulin, several of the aminosterols from shark liver were administered to fasting mice. Male CD-1 mice were assigned to one of four treatment groups. Whole blood glucose was tested using glucometer (Lifescan Glucometer II and One Touch test strips). Statistical analysis was via one-way analysis of variance (ANOVA) followed by subsequent Bonferonni's t-test.

[10] = tested on: chick chorioallantoic membrane capillaries; test: Chorioallantoic membrane (CAM) model, inhibition of capillary growth; type: in vivo; settings: for Percentage positive, Assay 1 / Percentage positive, Assay 2 / Percentage positive, Mean: 3-day embryo
From the text: The growing capillaries within the chorioallantoic membrane model (CAM model) have been used as a system in which to evaluate the effect of agents on their potential to inhibit new vessel growth. Neovascularization occurs most aggressively over the first week of embryonic development. Thereafter capillary growth is characterized by principally "elongation" rather than "de novo" formation.
In the standard assay, agents are applied locally to a region of the embryo over which neovascularization will occur. Agents are assessed by their ability to inhibit this process, as evaluated by visual examination about 7 days after application. […] The assay utilized is described in detail in Auerbach et al., Pharm. Ther. 51, 1991, 1-11.

[11] = tested on: human microvascular cells; test: Inhibition of endothelial cell cord formation in vitro; type: cell-based; settings: concentrations inhibiting cord formation
From the text: Endothelial cells have the capacity in vitro to form tubular aggregates resembling capillaries in various early stages of formation. This conversion occurs under relatively specific conditions, in which essential growth factors along with an effective substratum are provided. It has been shown that both the interaction of growth factors with the endothelial cell and its attachment to a substratum activate the NHE. The activation of this exchanger is believed to be required for subsequent morphologic transformation of the endothelial cell into a multicellular tubular structure.
To assess the effect of compounds on the cord-like structures formed by human microvascular cells when plated in the presence of VEGF (Vascular Endothelial Growth Factor) and basic fibroblast growth factor on a collagen matrix, a standard cord formation assay was used.

[12] = tested on: human epithelial cell line MCF 10A; test: Growth inhibition of epithelial cells in vitro; type: cell-based; settings: 10 μg/ml
[13] = tested on: rabbit NHE1; test: NHE1 inhibition, internal pH in PS120 fibroblasts expressing rabbit NHE1; type: cell-based; settings: 5 μg/ml squalamine, acid-preloaded
Procedure: (§1) PS120 fibroblasts transfected with rabbit or human NHEl were grown as described above.

[14] = tested on: Xenopus tadpoles, stage 59-60; settings: 10 μg/mL
[15] = tested on: human coronary artery smooth muscle; test: Growth of human coronary artery smooth muscle in vitro; type: cell-based; settings: in vitro
From the text: Aminosterols of the invention may also have utility in inhibiting the growth factor mediated proliferation of smooth muscle within the artery. Following coronary angioplasty, reocclusion commonly occurs, secondary to reparative proliferation of the vascular smooth muscle within the wall of the surgically manipulated blood vessel. This process generally takes place over the course of 7-10 days. To evaluate whether an agent could prevent the growth factor mediated proliferation of smooth muscle within the artery, compound 1436 was evaluated in vitro for its effect on the proliferation of human coronary artery smooth muscle. Results for compound 1436 are shown in FIG. 13, and those for squalamine are shown in FIG. 14, with FIG. 15 being a composite logarithmic plot.

[16] = tested on: bovine pulmonary endothelial cells; test: Growth inhibition of endothelial cells in vitro; type: cell-based; settings: 1 μg/ml
[17] = tested on: human foreskin fibroblasts; test: Growth inhibition of fibroblasts in vitro; type: cell-based; settings: 10 μg/ml
[18] = tested on: human NHE1; test: NHE1 inhibition, internal pH in PS120 fibroblasts expressing human NHE1; type: cell-based; settings: 5 μg/ml squalamine, acid-preloaded
Procedure: as §1

[19] = tested on: human umbilical venous endothelial cells; test: LPS-induced neutrophil adherence to human umbilical venous endothelial cells; settings: 10 μg, 1.0 μg, or 0.1 μg; LPS or TNF-α
Procedure: In these experiments, approximately 2×10^5 human umbilical venous cells (passage 2-6) were plated per well. The cells were grown in serum-free media overnight. For induction, either TNF-α (40 ng/ml) was added to endothelial cells for 6 hours prior to adding neutrophils or LPS (100 ng/ml) was added for 4-6 hours. […] After activation of the endothelial cells, approximately 50×10^6 neutrophils were added per well. The plates were gently rocked for 30 minutes at room temperature, followed by removal of the media and washing in serum-free media three times and then photographing of each well. […] A monoclonal Ab to ICAM-1 was a positive control.

[20] = tested on: human melanoma 1205Lu; test: Suppression of human melanoma in RAG-1 mice; type: in vivo
From the text: As apparent from FIG. 5, melanoma 120SLu develops aggressively in RAG-1 mice after implantation.

[21] = 20 μg applied, some vascular irritation noted
[22] = 40 μg applied, some vascular irritation noted

Chain of rabbit NHE3 (P26432 30-832): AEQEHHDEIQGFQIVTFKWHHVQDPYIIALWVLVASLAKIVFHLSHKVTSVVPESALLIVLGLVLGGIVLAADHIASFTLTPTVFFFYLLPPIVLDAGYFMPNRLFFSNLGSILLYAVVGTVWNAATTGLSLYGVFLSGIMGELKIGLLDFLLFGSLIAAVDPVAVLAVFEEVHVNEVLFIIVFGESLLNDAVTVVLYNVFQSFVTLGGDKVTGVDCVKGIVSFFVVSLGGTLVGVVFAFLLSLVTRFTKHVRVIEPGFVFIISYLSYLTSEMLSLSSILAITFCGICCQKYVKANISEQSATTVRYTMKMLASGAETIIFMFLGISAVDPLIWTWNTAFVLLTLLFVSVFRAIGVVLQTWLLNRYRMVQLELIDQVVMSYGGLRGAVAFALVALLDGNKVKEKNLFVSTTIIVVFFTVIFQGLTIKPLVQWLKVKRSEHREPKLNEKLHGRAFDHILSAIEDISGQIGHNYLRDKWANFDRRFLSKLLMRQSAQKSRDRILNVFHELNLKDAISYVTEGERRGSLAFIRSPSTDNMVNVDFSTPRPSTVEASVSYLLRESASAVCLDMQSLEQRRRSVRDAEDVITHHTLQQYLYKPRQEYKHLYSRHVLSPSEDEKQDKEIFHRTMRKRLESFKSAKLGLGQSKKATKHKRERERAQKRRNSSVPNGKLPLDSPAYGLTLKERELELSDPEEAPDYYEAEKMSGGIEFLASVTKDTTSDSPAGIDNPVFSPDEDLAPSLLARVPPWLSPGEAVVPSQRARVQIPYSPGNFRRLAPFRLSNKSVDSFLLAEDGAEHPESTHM

C[C@H](CCC(=O)O)[C@H]1CC[C@H]2[C@@H]3CC[C@H]4C[C@@H](NCCCNCCCCN)CC[C@]4(C)[C@H]3CC[C@]12C [Compound 319]
Potency as an NHE inhibitor compared with squalamine [1]: superior to squalamine | Tadpole assay, observed effects ([2]; 10 μg/ml): common vascular occlusive effect | half-life [3]: about 14 minute | Control of B16 in C57B mice ([4]; compound 319, subcutaneous, intraperitoneal (FIG. 6 legend)): control of B16 in C57B mice to an extent almost comparable to squalamine | Vitelline capillary regression ([5]; 0.001 μg applied): +/- | Vitelline capillary regression ([5]; 0.01 μg applied): + | Vitelline capillary regression ([5]; 0.1 μg applied): + | Vitelline capillary regression ([5]; 1 μg applied): + | Vitelline capillary regression ([5]; 10 μg applied): +

CC(C)CCC[C@@H](C)[C@H]1CC[C@H]2[C@@H]3CC[C@H]4C[C@@H](NCCCNCCCCNCCCN)CC[C@]4(C)[C@H]3CC[C@]12C [Compound 353]
Apoptosis [6]: apoptotic cell death has been induced | Time course of effect on growth of melanoma [6]: most pronounced over 48 hours, with less of an effect noted within the first 12 hours of incubation | Pharmacologic similarity in tadpole assay ([2]; in vivo): effects like those produced by compound 1436 | Vitelline capillary regression ([5]; 1 μg applied): +/- | Effect on chick embryo vessels [5]: no effect on the chick embryo capillary bed | minimal effective concentration [7]: 1.9 µg/mL | minimal effective concentration [8]: 3 µg/mL

CC(C)[C@@H](CC[C@@H](C)[C@H]1CC[C@H]2[C@@H]3[C@H](O)C[C@H]4C[C@@H](NCCCNCCCCN)CC[C@]4(C)[C@H]3CC[C@]12C)OS(=O)(=O)O [Compound 1256]
Fasting Blood Glucose Mean ± SEM [9]: 65 ± 7.3 mg/dL | Inhibition of CAM vessel neovascularization ([10]; 3-day CAM, 0.65 μg): inhibition of CAM vessel neovascularization | Percentage positive, Assay 1 ([10]; 0.65 μg applied): 28% | Percentage positive, Assay 1 ([10]; 1.25 μg applied): 18% | Percentage positive, Assay 2 ([10]; 1.25 μg applied): 18% | Percentage positive, Mean ([10]; 1.25 μg applied): 18% | Percentage positive, Assay 1 ([10]; 2.5 μg applied): 35% | Percentage positive, Assay 2 ([10]; 2.5 μg applied): 18% | Percentage positive, Mean ([10]; 2.5 μg applied): 27% | Percentage positive, Assay 1 ([10]; 5.0 μg applied): 91% | Percentage positive, Assay 2 ([10]; 5.0 μg applied): 57% | Percentage positive, Mean ([10]; 5.0 μg applied): 74% | Percentage positive, Mean ([10]; 20 μg applied): 55% | Percentage positive, Assay 1 [10, 21]: 52% | Percentage positive, Assay 2 [10, 21]: 58% | Percentage positive, Mean ([10]; 40 μg applied): 32% | Percentage positive, Assay 1 [10, 22]: 50% | Percentage positive, Assay 2 [10, 22]: 13% | Percentage positive ([10]; 13-day embryo, 5.0 μg applied): 0/26 | Inhibition of CAM vessel neovascularization ([10]; 13-day old chick, ten times that amount): no inhibitory effect | Effect on cell viability or proliferation [11]: does not appear to profoundly affect cell viability or proliferation | Inhibition of NHE3 ([1]; 5 μg/ml squalamine, acid-preloaded and not acid-preloaded cells): inhibited NHE3 with respect to proton concentration at both Km and Vmax levels | Effect on resting pH ([1]; 5 μg/ml, not acid-preloaded): causes the cell to drop to a lower pH in its presence before activation of the pump occurs | NHE isoform specificity ([1]; NHE3 vs NHE1, listed as squalamine): inhibits NHE3, but not NHE1; also recorded: specificity for NHE3 over NHE1 | Growth inhibition of epithelial cells [12]: no effect | Inhibition of rabbit NHE1 [13]: no inhibitory activity; also recorded: lack of inhibition of rabbit sodium/proton exchanger isoform 1 (NHE1) | Tadpole assay, observed effects ([2]; 10 μg/ml): Vascular occlusion in fine capillaries of tail; also recorded: No effect on vascular flow through hands or feet | Tadpole time to death ([2]; 10 μg/ml): ≤ 2 h | Tadpole assay, observed effects ([2]; 10 μg/ml, listed as squalamine): blood flow through the capillaries of the tail shut down; also recorded: unaltered blood flow through the fine capillaries of the hands and feet; also recorded: common vascular occlusive effect | Tadpole E (epithelial) [14]: - | Tadpole GI (gastrointestinal) [14]: - | Tadpole M (melanocytes) [14]: - | Tadpole Mus (muscle) [14]: - | Tadpole V (vascular) [14]: + | Suppression of growth of human coronary artery smooth muscle [15]: suppress in vitro the growth of human coronary artery smooth muscle | Growth inhibition of bovine pulmonary endothelial cells (BPE) [16]: inhibited the growth of bovine pulmonary artery endothelial cells (BPE) | Growth inhibition of fibroblasts [17]: no effect | Inhibition of human NHE1 [18]: no inhibitory activity; also recorded: lack of inhibition of human NHE1 | Body weight and hematologic parameters ([4]; squalamine): no significant depression | Impact on tumor volume ([4]; squalamine 5 mg/kg/day): no significant impact on tumor volume | Tumor growth effect of single agent compared with combination ([4]; squalamine 15 mg/kg/day, compound 1436 alone in a tolerable schedule): Neither administration of squalamine at 15 mg/kg/day nor compound 1436 alone in a tolerable schedule could achieve this effect | Suppression of tumor volume ([4]; squalamine, subcutaneous, intraperitoneal or oral): dose-dependent suppression of tumor volume | Inhibition of neutrophil adherence [19]: no inhibition | Tumor growth after cessation of treatment [20]: tumor growth continued at a rate similar to untreated controls | Suppression of growth of melanoma 1205Lu ([20]; 10, 20, 40 mg/kg/d, listed as Squalamine): suppress the growth of melanoma 1205Lu in RAG-1 mice in a dose-dependent fashion; also recorded: clear suppression of tumor growth in a dose-dependent fashion | Vitelline capillary regression ([5]; 0.001 μg applied): 0 | Vitelline capillary regression ([5]; 0.01 μg applied): + | Vitelline capillary regression ([5]; 0.1 μg applied): + | Vitelline capillary regression ([5]; 1 μg applied): + | Vitelline capillary regression ([5]; 10 μg applied): + | Hemorrhage / hemolysis in chick embryo ([5]; 0.1 ml in 15% Ficol in PBS, listed as Squalamine): No hemorrhage was seen; also recorded: absence of hemolysis | Effect on chick embryo vessels [5]: disrupt vitelline capillaries in 3- to 5-day chick embryos | Chick embryo diss. assay, Minimum Effective Concentration ([5]; Table II): 0.01 µg | minimal effective concentration [7]: 13.2 µg/mL
